The structures appear in SMILES notation. A value given as a limit tells only on which side of the number the result lay.

Results on 41 molecules are retold here after patent US10144755B2, “Substituted nucleosides, nucleotides and analogs thereof” (ALIOS BIOPHARMA, INC., priority 2012, dated 2018).

human mitochondrial RNA polymerase, sequence (O00411 42-1230): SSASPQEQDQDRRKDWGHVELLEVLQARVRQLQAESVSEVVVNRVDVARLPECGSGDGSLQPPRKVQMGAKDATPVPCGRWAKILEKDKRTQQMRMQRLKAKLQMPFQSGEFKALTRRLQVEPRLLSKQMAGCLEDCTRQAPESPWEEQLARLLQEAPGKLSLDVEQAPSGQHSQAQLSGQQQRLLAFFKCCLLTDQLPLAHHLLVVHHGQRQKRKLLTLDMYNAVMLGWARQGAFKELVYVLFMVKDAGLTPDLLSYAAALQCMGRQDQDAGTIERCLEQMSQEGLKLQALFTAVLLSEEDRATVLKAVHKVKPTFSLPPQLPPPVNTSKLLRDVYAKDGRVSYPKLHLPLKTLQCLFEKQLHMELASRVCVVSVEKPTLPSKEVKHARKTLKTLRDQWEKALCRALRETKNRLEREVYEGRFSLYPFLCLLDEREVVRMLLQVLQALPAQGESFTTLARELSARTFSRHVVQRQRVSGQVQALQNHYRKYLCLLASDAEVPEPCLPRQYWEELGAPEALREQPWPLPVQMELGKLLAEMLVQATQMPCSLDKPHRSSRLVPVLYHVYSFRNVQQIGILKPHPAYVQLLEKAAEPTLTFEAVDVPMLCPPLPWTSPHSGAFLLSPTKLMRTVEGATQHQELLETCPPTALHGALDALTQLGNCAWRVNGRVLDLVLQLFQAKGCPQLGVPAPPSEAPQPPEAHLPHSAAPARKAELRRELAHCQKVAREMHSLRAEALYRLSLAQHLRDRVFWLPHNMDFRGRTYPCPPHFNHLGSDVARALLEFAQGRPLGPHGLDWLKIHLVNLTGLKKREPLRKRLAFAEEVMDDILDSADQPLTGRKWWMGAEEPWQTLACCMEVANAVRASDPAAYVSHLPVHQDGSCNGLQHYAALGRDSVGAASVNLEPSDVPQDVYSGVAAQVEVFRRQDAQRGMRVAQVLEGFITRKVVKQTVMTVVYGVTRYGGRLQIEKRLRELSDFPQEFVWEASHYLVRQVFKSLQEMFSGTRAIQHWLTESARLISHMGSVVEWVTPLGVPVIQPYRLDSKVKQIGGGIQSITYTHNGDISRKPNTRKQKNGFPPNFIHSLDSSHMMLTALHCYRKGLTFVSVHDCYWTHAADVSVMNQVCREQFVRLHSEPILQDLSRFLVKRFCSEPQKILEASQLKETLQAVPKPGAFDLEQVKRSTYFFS

One series deals with mitochondrial protein synthesis (COX I / SDH A) in HepG2 cells.
Assay: not given
Conditions: not given
In the case of `COc1nc(N)nc2c1ncn2[C@@H]1O[C@H](COP(=O)(N[C@@H](C)C(=O)OCC(C)(C)C)Oc2cccc3ccccc23)[C@@H](O)[C@@]1(C)O` (some centres unmarked) [INX-08189/BMS-986094], the “inhibition of mitochondrial protein synthesis (COX I/SDH A ratio)” value (“inhibition … (COX I/SDH A ratio)” for short) is “strongly inhibit mitochondrial protein synthesis”.

With `Nc1ccn([C@H]2CC[C@@H](CO)O2)c(=O)n1` [ddC], the “inhibition … (COX I/SDH A ratio)” value was “strongly inhibit mitochondrial protein synthesis”.

As for `Cc1cn([C@H]2C=C[C@@H](CO)O2)c(=O)[nH]c1=O` [d4T], the “inhibition … (COX I/SDH A ratio)” value is on record as “not to inhibit mitochondrial protein synthesis at concentrations up to 100 μM”.

A further series addresses human mitochondrial RNA polymerase (Homo sapiens, UniProt O00411). Description: DdRp assay: incorporation of nucleotides by human mitochondrial RNA polymerase (HMRP). As to conditions: single turnover, 100 μM NTP, 30° C., 1 minute; product band on gel.
On to `C[C@@]1(F)[C@H](O)[C@@H](COP(=O)(O)OP(=O)(O)OP(=O)(O)O)O[C@H]1n1ccc(=O)[nH]c1=O` [2′-Me-2′-F-UTP], for which the “incorporation by HMRP, template for UTP analogs (FIG. 10)” value is recorded as “not efficient substrates for incorporation by HMRP”.

Regarding `Nc1ncnc2c1ncn2[C@@H]1O[C@H](COP(=O)(O)OP(=O)(O)OP(=O)(O)O)[C@@H](O)[C@H]1O` [ATP], the “incorporation by HMRP, template for GTP analogs (FIG. 11)” value is “poor substrate for incorporation”.

The target in the next series is NS5B570-Con1 (Delta-21) (Hepatitis C virus genotype 1b, UniProt Q9WMX2). Kind of series: biochemical. The format is biochemical, HCV (Con-1 strain). As to conditions: 50 nM NS5B570-Con1, cIRES RNA template, 2 h at 37° C., mean of several independent experiments.
Regarding `C#C[C@]1(F)[C@H](n2cnc3c(=O)[nH]c(N)nc32)O[C@](F)(COP(=O)(O)OP(=O)(O)OP(=O)(O)O)[C@H]1O` [Compound 44], the IC50 (as a rule, the point on the concentration scale where inhibition reaches its midpoint) was less than 1000 nM.

The series is the same for the next values; noted with them: 50 nM NS5B570-Con1, cIRES RNA template, 2 h at 37° C., mean of several independent experiments; read-out: IC50.
In the case of `C[C@]1(Cl)[C@H](n2ccc(=O)[nH]c2=O)O[C@](F)(COP(=O)(O)OP(=O)(O)OP(=O)(O)O)[C@H]1O` [Compound 46], the IC50 was less than 1000 nM.

The same series, now with this note: IC50, 50 nM NS5B570-Con1, cIRES RNA template, 2 h at 37° C., mean of several independent experiments.
Turning to `C[C@]1(O)[C@H](n2ccc(=O)[nH]c2=O)O[C@](F)(COP(O)(=S)OP(=O)(O)OP(=O)(O)O)[C@H]1O` (single isomer, unassigned) [Compound 7b], the IC50 lay in the range of 1000 to 10000 nM.

For `C#C[C@]1(F)[C@H](n2cnc3c(=O)[nH]c(N)nc32)O[C@](F)(COP(=O)(O)OP(=O)(O)OP(=O)(O)O)[C@H]1O` [Compound 69], the IC50 is less than 1000 nM.

On to `C#C[C@]1(O)[C@H](n2cnc3c(=O)[nH]c(N)nc32)O[C@](F)(COP(=O)(O)OP(=O)(O)OP(=O)(O)O)[C@H]1O` [Compound 9], for which the IC50 was less than 1000 nM.

For the molecule `C[C@]1(O)[C@H](n2ccc(=O)[nH]c2=O)O[C@](F)(COP(O)(=S)OP(=O)(O)OP(=O)(O)O)[C@H]1O` (single isomer, unassigned) [Compound 7a], the IC50 was less than 1000 nM.

With `O=c1ccn([C@@H]2O[C@](F)(COP(=O)(O)OP(=O)(O)OP(=O)(O)O)[C@@H](O)[C@]2(O)CF)c(=O)[nH]1` [Compound 76], the IC50 was less than 1000 nM.

For the next series, the system named is self-replicating, subgenomic HCV replicon in Huh-7 cells. Kind of series: HCV replicon assay. It counts as cell-based. As to conditions: Hepatitis C virus, Huh-7, 72 h. On the technique in general: In antiviral work, replicon cells carry a viral genome segment that copies itself.
As to `C[C@H](NP(=O)(OC[C@@]1(F)O[C@@H](n2ccc(=O)[nH]c2=O)[C@](C)(F)[C@@H]1O)Oc1ccccc1)C(=O)OC1CCCCC1` (some centres unmarked) [Compound 30], the EC50 (commonly the concentration at which the effect is half-maximal) is less than 1000 nM.

Consider `CCOc1nc(N)nc2c1ncn2[C@@H]1O[C@](F)(COP(=O)(N[C@@H](C)C(=O)OCC(C)C)Oc2ccccc2)[C@@H](O)[C@@]1(C)F` (some centres unmarked) [Compound 86], for which the EC50 was less than 1000 nM.

In the case of `CCOc1nc(N)nc2c1ncn2[C@@H]1O[C@](F)(COP(=O)(N[C@@H](C)C(=O)OC(C)C)Oc2ccccc2)[C@@H](O)[C@@]1(C)F` (some centres unmarked) [Compound 85], the EC50 was less than 1000 nM.

The molecule `CCOc1nc(N)nc2c1ncn2[C@@H]1O[C@](F)(CO[P@](=O)(N[C@@H](C)C(=O)OC2CCCCC2)Oc2ccccc2)[C@@H](O)[C@@]1(C)F` [Compound 32] gave an EC50 of less than 1000 nM.

`C#C[C@]1(F)[C@H](n2cnc3c(OCC)nc(N)nc32)O[C@](F)(COP(=O)(N[C@@H](C)C(=O)OC2CCCCC2)Oc2ccccc2)[C@H]1O` (single isomer, unassigned) [Compound 41] gave an EC50 of 1000 to 10000 nM.

With `CC(C)(C)C(=O)SCCOCCOP(=O)(OCCOCCSC(=O)C(C)(C)C)OC[C@@]1(F)O[C@@H](n2ccc(=O)[nH]c2=O)[C@](C)(O)[C@@H]1O` [Compound 59], the EC50 is 10000 to 100000 nM.

Molecule `C[C@H](NP(=O)(OC[C@@]1(F)O[C@@H](n2ccc(=O)[nH]c2=O)[C@](C)(O)C1O)Oc1ccccc1)C(=O)OCC(C)(C)C` (some centres unmarked) [Compound 5] returned an EC50 of less than 1000 nM.

In turn, `CCOc1nc(N)nc2c1ncn2[C@@H]1O[C@](F)(COP(=O)(N[C@@H](C)C(=O)OC(C)C)Oc2cccc3ccccc23)[C@@H](O)[C@@]1(C)F` (some centres unmarked) [Compound 83] gave an EC50 of less than 1000 nM.

On to `CCOc1nc(N)nc2c1ncn2[C@@H]1O[C@](F)(COP(=O)(N[C@@H](C)C(=O)OCC(C)C)Oc2cccc3ccccc23)[C@@H](O)[C@@]1(C)F` (some centres unmarked) [Compound 84], for which the EC50 was less than 1000 nM.

`C=C[C@]1(O)[C@H](n2ccc(=O)[nH]c2=O)O[C@](F)(CO[P@@](=O)(N[C@@H](C)C(=O)OC(C)C)Oc2ccccc2)[C@H]1O` [Compound 77] had an EC50 of 1000 to 10000 nM.

The molecule `C#C[C@]1(O)[C@H](n2cnc3c(OCC)nc(N)nc32)O[C@](F)(CO[P@](=O)(N[C@@H](C)C(=O)OC2CCCCC2)Oc2ccccc2)[C@H]1O` [Compound 34] had an EC50 of less than 1000 nM.

`CCOc1nc(N)nc2c1ncn2[C@@H]1O[C@](F)(CO[P@@](=O)(N[C@@H](C)C(=O)OC2CCCCC2)Oc2ccccc2)[C@@H](O)[C@@]1(C)F` [Compound 33] showed an EC50 of less than 1000 nM.

Molecule `C#C[C@]1(O)[C@H](n2cnc3c(OCC)nc(N)nc32)O[C@](F)(CO[P@@](=O)(N[C@@H](C)C(=O)OC2CCCCC2)Oc2ccccc2)[C@H]1O` [Compound 35] displayed an EC50 of less than 1000 nM.

For `CC(C)(C)C(=O)SCCOP(=O)(OCCSC(=O)C(C)(C)C)OC[C@@]1(F)O[C@@H](n2ccc(=O)[nH]c2=O)[C@](C)(O)[C@@H]1O` [Compound 58], the EC50 is less than 1000 nM.

For `C#C[C@]1(F)[C@H](n2cnc3c(OCC)nc(N)nc32)O[C@](F)(COP(=O)(N[C@@H](C)C(=O)OC2CCCCC2)Oc2ccccc2)[C@H]1O` (some centres unmarked) [Compound 40], the EC50 was in the range of 1000 to 10000 nM.

`CC(C)OC(=O)[C@H](C)NP(=O)(OC[C@@]1(F)O[C@@H](n2ccc(=O)[nH]c2=O)[C@](C)(F)[C@@H]1O)Oc1ccccc1` (some centres unmarked) [Compound 31] showed an EC50 of less than 1000 nM.

The same series, now with this note: Hepatitis C virus; Huh-7 HCV replicon cells, luciferase reporter, 72 h; read-out: EC50.
As for `CCOc1nc(N)nc2c1ncn2[C@@H]1O[C@](F)(COP(=O)(OCOC(=O)OC(C)C)OCOC(=O)OC(C)C)[C@@H](O)[C@@]1(C)F` [Compound 53], the EC50 was less than 1000 nM.

For the molecule `C#C[C@]1(O)[C@H](n2ccc(=O)[nH]c2=O)O[C@](F)(COP(=O)(OCOC(=O)OC(C)C)OCOC(=O)OC(C)C)[C@H]1O` [Compound 51], the EC50 lay in the range of 1000 to 10000 nM.

`CCOc1nc(N)nc2c1ncn2[C@@H]1O[C@]2(F)CO[P@@](=O)(OC(C)C)O[C@H]2[C@@]1(C)F` [Compound 43]: the EC50 was less than 1000 nM.

As to `C[C@]1(F)[C@H](n2cnc3c(=O)[nH]c(N)nc32)O[C@](F)(CO)[C@H]1O` [Compound 29], the EC50 fell in the range of 10000 to 100000 nM.

For the molecule `CC(C)OC(=O)OCOP(=O)(OCOC(=O)OC(C)C)OC[C@@]1(F)O[C@@H](n2cnc3c(=O)[nH]c(N)nc32)[C@](C)(O)[C@@H]1O` [Compound 49], the EC50 is less than 1000 nM.

Regarding `CC(C)(C)C(=O)OCOP(=O)(OCOC(=O)C(C)(C)C)OC[C@@]1(F)O[C@@H](n2ccc(=O)[nH]c2=O)[C@](C)(O)[C@@H]1O` [Compound 55], the EC50 was less than 1000 nM.

Take `C[C@]1(F)[C@H](n2ccc(N)nc2=O)O[C@](F)(COP(=O)(O)OP(=O)(O)OP(=O)(O)O)[C@H]1O` [Compound 28]: the EC50 is less than 1000 nM.

On to `CCOc1nc(N)nc2c1ncn2[C@@H]1O[C@]2(F)CO[P@@](=O)(OC(C)C)O[C@H]2[C@@]1(C)O` [Compound 37], for which the EC50 was less than 1000 nM.

As to `C[C@]1(F)[C@H](n2ccc(N)nc2=O)O[C@](F)(CO)[C@H]1O` [Compound 27], the EC50 lay in the range of 10000 to 100000 nM.

`CCOc1nc(N)nc2c1ncn2[C@@H]1O[C@]2(F)CO[P@](=O)(OC(C)C)O[C@H]2[C@@]1(C)O` (single isomer, unassigned) [Compound 36]: the EC50 was less than 1000 nM.

`CCOc1nc(N)nc2c1ncn2[C@@H]1O[C@](F)(COP(=O)(OCOC(=O)OC(C)C)OCOC(=O)OC(C)C)[C@@H](O)[C@@]1(C)O` [Compound 52]: the EC50 is less than 1000 nM.

As to `CC(C)OC(=O)OCOP(=O)(OCOC(=O)OC(C)C)OC[C@@]1(F)O[C@@H](n2ccc(=O)[nH]c2=O)[C@](C)(O)[C@@H]1O` [Compound 14], the EC50 was less than 1000 nM.

Still in this series, the particulars now being: read-out: EC50.
Take `CCOc1nc(N)nc2c1ncn2[C@@H]1O[C@]2(F)CO[P@](=O)(OC(C)C)O[C@H]2[C@@]1(C)F` [Compound 42]: the EC50 was less than 1000 nM.
